Experimental data: patent US20080108612A1, “Use of Purine Derivatives as HSP90 Protein Inhibitors” (AVENTIS PHARMA S.A., priority 2005, published 2008)
Structures can show the parent of a compound that is named as a salt.

Tested on: not given
Assay: not given
Details: not given

melting point [°C] | SMILES
258 to 260 | Cl.c1ccc(CN2CCN(c3ncnc4[nH]cnc34)CC2)cc1 [Example 1]

Target: Hsp82 (Saccharomyces cerevisiae, UniProt P02829)
Assay: Inhibition of the ATPase activity of Hsp82 in the enzymatic coupling system (pyruvate kinase / lactate dehydrogenase)
Type: biochemical
Details: not given
Text: The formation of ADP due to the ATPase activity of Hsp82 was used to develop another method for evaluating the enzymatic activity of this enzyme by application of an enzymatic coupling system involving pyruvate kinase (PK) and lactate dehydrogenase (LDH). In this kinetic-type spectrophotometric method, the PK catalyzes the formation of ATP and of pyruvate from phosphoenol pyruvate (PEP) and from the ADP produced by Hsp82. The pyruvate formed, which is a substrate for LDH, is then converted to lactate in the presence of NADH. In this case, the decrease in NADH concentration, measured by the decrease in absorbance at the wavelength of 340 nm, is proportional to the concentration of ADP produced by Hsp82.
The products tested were incubated in a reaction volume of 100 μl of buffer composed of 100 mM Hepes-NaOH (pH 7.5), 5 mM MgCl2, 1 mM DTT, 150 mM KCl, 0.3 mM NADH, 2.5 mM PEP and 250 μM ATP. This mixture was preincubated at 37° C. for 30 min before adding 3.77 units of LDH and 3.77 units of PK. The reaction was initiated by addition of the product to be evaluated, in variable concentrations, and of Hsp82, at the concentration of 1 μM. Measurement of the enzymatic activity of Hsp82 was then carried out, continuously, in a microplate reader at 37° C., at the wavelength of 340 nm. The initial rate of the reaction was obtained by measuring the slope of the tangent at the origin of the curve recorded. The enzymatic activity was expressed in μM of ADP formed per minute. The effect of the various products tested was expressed as a percentage inhibition of the ATPase activity.
The inhibitory activities on the ATPase activity of Hsp82 obtained with the products of the invention in the enzymatic coupling system are given in the table below, according to the criteria below for inhibition of the ATPase activity of Hsp82: […]

Hsp82, sequence (P02829 whole entry): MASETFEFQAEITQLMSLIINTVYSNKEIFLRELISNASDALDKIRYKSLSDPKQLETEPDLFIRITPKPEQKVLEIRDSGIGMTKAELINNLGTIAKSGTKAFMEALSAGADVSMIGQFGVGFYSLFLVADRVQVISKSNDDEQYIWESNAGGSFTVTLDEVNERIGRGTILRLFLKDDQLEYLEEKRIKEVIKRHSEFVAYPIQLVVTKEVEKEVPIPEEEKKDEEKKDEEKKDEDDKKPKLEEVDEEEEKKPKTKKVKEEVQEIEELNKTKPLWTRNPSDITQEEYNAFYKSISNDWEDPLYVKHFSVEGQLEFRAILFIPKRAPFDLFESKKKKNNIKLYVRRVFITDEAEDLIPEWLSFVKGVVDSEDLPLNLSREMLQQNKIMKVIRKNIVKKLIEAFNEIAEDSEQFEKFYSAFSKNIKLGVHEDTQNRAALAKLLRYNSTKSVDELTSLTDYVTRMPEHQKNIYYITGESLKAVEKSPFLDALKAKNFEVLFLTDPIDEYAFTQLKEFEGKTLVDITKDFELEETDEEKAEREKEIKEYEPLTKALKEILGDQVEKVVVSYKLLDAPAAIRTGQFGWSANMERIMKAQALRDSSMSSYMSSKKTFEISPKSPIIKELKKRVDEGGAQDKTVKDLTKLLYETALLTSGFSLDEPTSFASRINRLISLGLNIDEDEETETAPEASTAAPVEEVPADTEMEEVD

SMILES | IC50 [µM]
CC(Nc1nc(Cl)nc2[nH]cnc12)c1ccccc1 (racemic) [Example 3, 2-chloro-6-(1(R,S)-phenylethyl)amino-1H-purine] | 10 to 100

Same assay, conditions: ATPase activity of Hsp82, PK/LDH enzymatic coupling system, 1 μM Hsp82, 250 μM ATP, 37° C., absorbance at 340 nm; read-out: IC50

SMILES | IC50 [µM]
Clc1nc(NCCN2CCOCC2)c2nc[nH]c2n1 [Example 4, 2-chloro-6-[2-(morpholin-4-yl)ethylamino]-1H-purine] | 10 to 100
c1csc(CNc2[nH]cnc3ncnc2-3)c1 [Example 5, 6-(thiophen-2-yl)methylamino-1H-purine] | 10 to 100
Clc1nc(NCCNCc2ccccc2)c2nc[nH]c2n1 [Example 6] | 10 to 100
CCOC(=O)CC1CCN(c2ncnc3[nH]cnc23)CC1 [Example 8, 6-[4-(ethyloxycarbonyl)methylpiperidin-1-yl]-1H-purine] | 10 to 100

The remaining lines, values ahead:

IC50 [µM] | SMILES
1 to 10 | Cl.c1ccc(CN2CCN(c3ncnc4[nH]cnc34)CC2)cc1 [Example 1]
10 to 100 | Clc1nc(OCc2ccccc2)c2nc[nH]c2n1 [Example 2, 2-chloro-6-phenylmethyloxy-1H-purine]
1 to 10 | c1nc(N2CCCCC2)c2nc[nH]c2n1 [Example 9, 6-(piperidin-1-yl)-1H-purine]
1 to 10 | c1ccc(N2CCN(c3ncnc4[nH]cnc34)CC2)nc1 [Example 10, 6-[4-(pyridin-2-yl)piperazinyl]-1-H-purine monohydrochloride]
